Data reported in patent publication US10919911B2, “Tricyclic ASK1 inhibitors” (Terns, Inc., priority 2018, dated 2021).

Target: ASK1 kinase (Homo sapiens (Human), UniProt Q99683)
Experiment: RBC Kinase Assay (33P-ATP radiometric, myelin basic protein substrate)
Format: biochemical
Conditions: 20 ng ASK1 kinase, MBP substrate, 120 min at room temperature, 1% DMSO
Description: Example B1. RBC Kinase Assay Protocol
Base Reaction buffer: 20 mM Hepes (pH 7.5), 10 mM MgCl2, 1 mM EGTA, 0.02% Brij35, 0.02 mg/ml BSA, 0.1 mM Na3VO4, 2 mM DTT, and 1% DMSO were used for the assay.
Myelin base protein (MPB) was prepared in freshly prepared Base Reaction Buffer. 20 ng of ASK1 kinase was delivered into the substrate solution and gently mixed. Compounds in DMSO were delivered into the kinase reaction mixture (final DMSO concentration 1%). Commercially available 33P-ATP was delivered into the reaction mixture to initiate the reaction. The kinase reaction was incubated for 120 min. at room temperature. Reactions were spotted onto P81 ion exchange paper (Whatman #3698-915). Filters were washed extensively in 0.75% Phosphoric acid. Radioactivity on filters was read, and IC50 values were determined.

Chain of ASK1 kinase (Q99683 whole entry): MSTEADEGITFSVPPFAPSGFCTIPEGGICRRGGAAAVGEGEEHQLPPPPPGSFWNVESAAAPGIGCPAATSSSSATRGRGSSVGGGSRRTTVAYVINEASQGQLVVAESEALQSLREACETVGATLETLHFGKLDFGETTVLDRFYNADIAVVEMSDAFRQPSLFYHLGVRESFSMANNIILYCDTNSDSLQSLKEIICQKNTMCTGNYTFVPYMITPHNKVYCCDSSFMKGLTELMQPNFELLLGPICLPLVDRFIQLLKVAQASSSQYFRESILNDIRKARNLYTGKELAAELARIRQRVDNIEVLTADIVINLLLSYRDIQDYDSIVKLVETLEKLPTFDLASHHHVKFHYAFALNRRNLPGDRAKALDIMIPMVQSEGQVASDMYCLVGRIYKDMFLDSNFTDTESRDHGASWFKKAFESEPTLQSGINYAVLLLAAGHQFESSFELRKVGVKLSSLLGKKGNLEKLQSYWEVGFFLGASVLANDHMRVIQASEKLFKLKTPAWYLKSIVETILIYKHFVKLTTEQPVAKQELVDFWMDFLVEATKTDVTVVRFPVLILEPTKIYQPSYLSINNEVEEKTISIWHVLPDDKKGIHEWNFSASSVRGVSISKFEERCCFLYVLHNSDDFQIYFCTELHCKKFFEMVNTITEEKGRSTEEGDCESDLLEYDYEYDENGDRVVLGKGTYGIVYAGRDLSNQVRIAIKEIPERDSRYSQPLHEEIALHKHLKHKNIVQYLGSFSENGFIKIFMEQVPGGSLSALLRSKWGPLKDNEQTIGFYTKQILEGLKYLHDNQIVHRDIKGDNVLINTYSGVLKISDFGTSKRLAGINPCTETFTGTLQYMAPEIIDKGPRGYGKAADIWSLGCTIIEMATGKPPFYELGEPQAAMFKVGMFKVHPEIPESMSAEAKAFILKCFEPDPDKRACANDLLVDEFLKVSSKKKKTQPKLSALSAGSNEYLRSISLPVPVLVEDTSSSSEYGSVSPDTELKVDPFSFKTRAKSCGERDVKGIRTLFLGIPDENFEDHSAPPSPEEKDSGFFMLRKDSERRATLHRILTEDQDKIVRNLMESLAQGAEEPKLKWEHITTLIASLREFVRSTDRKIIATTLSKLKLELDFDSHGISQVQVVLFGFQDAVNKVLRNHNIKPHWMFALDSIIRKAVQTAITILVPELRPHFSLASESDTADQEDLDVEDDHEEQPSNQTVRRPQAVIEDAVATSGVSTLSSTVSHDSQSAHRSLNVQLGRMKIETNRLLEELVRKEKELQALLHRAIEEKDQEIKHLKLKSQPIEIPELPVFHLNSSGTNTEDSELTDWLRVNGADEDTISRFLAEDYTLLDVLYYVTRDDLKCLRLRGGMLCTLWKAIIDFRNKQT

| Structure (SMILES) | IC50 |
| --- | --- |
| Cc1cc(F)c(C(=O)Nc2cccc3c2OC2(CC2)Cn2nnnc2-3)cc1-n1cnc(C2CC2)c1 [Example 59, 5-(4-cyclopropyl-1H-imidazol-1-yl)-2-fluoro-4-methyl-N-(5H-spiro[benzo[f]tetrazolo[1,5-d][1,4]oxazepine-6,1′-cyclopropan]-8-yl)benzamide] | 4.2 nM |
| CN(C)c1cnc(C(=O)Nc2cccc3c2OCCn2nnnc2-3)cc1-n1cnc(C2CC2)c1 [Example 60, 4-(4-cyclopropyl-1H-imidazol-1-yl)-N-(5,6-dihydrobenzo[f]tetrazolo[1,5-d][1,4]oxazepin-8-yl)-5-(dimethylamino)picolinamide] | 6.9 nM |
| O=C(Nc1cccc2c1OCCn1nnnc1-2)c1cc(-n2cnc(C3CC3)c2)c(N2C[C@H]3C[C@@H]2CO3)cn1 [Example 62, 5-((1R,4R)-2-oxa-5-azabicyclo[2.2.1]heptan-5-yl)-4-(4-cyclopropyl-1H-imidazol-1-yl)-N-(5,6-dihydrobenzo[f]tetrazolo[1,5-d][1,4]oxazepin-8-yl)picolinamide] | 5.1 nM |
| CC1(O)CCN(c2cnc(C(=O)Nc3cccc4c3OCCn3nnnc3-4)cc2-n2cnc(C3CC3)c2)C1 (stereo not drawn) [Example 63, 4-(4-cyclopropyl-1H-imidazol-1-yl)-N-(5,6-dihydrobenzo[f]tetrazolo[1,5-d][1,4]oxazepin-8-yl)-5-(3-hydroxy-3-methylpyrrolidin-1-yl)picolinamide] | 2.7 nM |
| O=C(Nc1cccc2c1OCCn1nnnc1-2)c1cc(-n2cnc(C3CC3)c2)c(N2C[C@@H]3C[C@H]2CO3)cn1 [Example 64, 5-((1S,4S)-2-oxa-5-azabicyclo[2.2.1]heptan-5-yl)-4-(4-cyclopropyl-1H-imidazol-1-yl)-N-(5,6-dihydrobenzo[f]tetrazolo[1,5-d][1,4]oxazepin-8-yl)picolinamide] | 3.9 nM |
| C[C@H]1COCCN1c1cnc(C(=O)Nc2cccc3c2OCCn2nnnc2-3)cc1-n1cnc(C2CC2)c1 [Example 65, (S)-4-(4-cyclopropyl-1H-imidazol-1-yl)-N-(5,6-dihydrobenzo[f]tetrazolo[1,5-d][1,4]oxazepin-8-yl)-5-(3-methylmorpholino)picolinamide] | 3.3 nM |
| CC1(O)CN(c2cnc(C(=O)Nc3cccc4c3OCCn3nnnc3-4)cc2-n2cnc(C3CC3)c2)C1 [Example 67, 4-(4-cyclopropyl-1H-imidazol-1-yl)-N-(5,6-dihydrobenzo[f]tetrazolo[1,5-d][1,4]oxazepin-8-yl)-5-(3-hydroxy-3-methylazetidin-1-yl)picolinamide] | 2.6 nM |
| CC(C)Oc1cnc(C(=O)Nc2cccc3c2OCCn2nnnc2-3)cc1-n1cnc(C2CC2)c1 [Example 68, 4-(4-cyclopropyl-1H-imidazol-1-yl)-N-(5,6-dihydrobenzo[f]tetrazolo[1,5-d][1,4]oxazepin-8-yl)-5-isopropoxypicolinamide] | 1.8 nM |
| C[C@@H]1COCCN1c1cnc(C(=O)Nc2cccc3c2OCCn2nnnc2-3)cc1-n1cnc(C2CC2)c1 [Example 70, (R)-4-(4-cyclopropyl-1H-imidazol-1-yl)-N-(5,6-dihydrobenzo[f]tetrazolo[1,5-d][1,4]oxazepin-8-yl)-5-(3-methylmorpholino)picolinamide] | 2.2 nM |
| CC(C)Oc1cnc(C(=O)Nc2cccc3c2OC[C@H](C)n2nnnc2-3)cc1-n1cnc(C2CC2)c1 [Example 71, (S)-4-(4-cyclopropyl-1H-imidazol-1-yl)-5-isopropoxy-N-(5-methyl-5,6-dihydrobenzo[f]tetrazolo[1,5-d][1,4]oxazepin-8-yl)picolinamide] | 5.3 nM |
| Cc1cc(F)c(C(=O)Nc2cccc3c2OC2(CCC2)Cn2nnnc2-3)cc1-n1cnc(C2CC2)c1 [Example 72, 5-(4-cyclopropyl-1H-imidazol-1-yl)-2-fluoro-4-methyl-N-(5H-spiro[benzo[f]tetrazolo[1,5-d][1,4]oxazepine-6,1′-cyclobutan]-8-yl)benzamide] | 11.6 nM |
| CC(C)Oc1cnc(C(=O)Nc2cccc3c2OCCn2cnnc2-3)cc1-n1cnc(C2CC2)c1 [Example 73, 4-(4-cyclopropyl-1H-imidazol-1-yl)-N-(5,6-dihydrobenzo[f][1,2,4]triazolo[4,3-d][1,4]oxazepin-8-yl)-5-isopropoxypicolinamide] | 5.8 nM |
| Cc1cc(F)c(C(=O)Nc2cccc3c2OCCn2cnc(Br)c2-3)cc1-n1cnc(C2CC2)c1 [Example 74, N-(1-bromo-5,6-dihydrobenzo[f]imidazo[1,5-d][1,4]oxazepin-8-yl)-5-(4-cyclopropyl-1H-imidazol-1-yl)-2-fluoro-4-methylbenzamide] | 39.8 nM |
| C[C@@H]1COc2c(NC(=O)c3cc(-n4cnc(C5CC5)c4)c(N4CC[C@@H](O)C4)cn3)cccc2-c2nnnn21 [Example 77, 4-(4-cyclopropyl-1H-imidazol-1-yl)-5-((R)-3-hydroxypyrrolidin-1-yl)-N—((R)-5-methyl-5,6-dihydrobenzo[f]tetrazolo[1,5-d][1,4]oxazepin-8-yl)picolinamide] | 4.7 nM |
| C[C@H]1COc2c(NC(=O)c3cc(-n4cnc(C5CC5)c4)c(N4CC[C@@H](O)C4)cn3)cccc2-c2nnnn21 [Example 78, 4-(4-cyclopropyl-1H-imidazol-1-yl)-5-((R)-3-hydroxypyrrolidin-1-yl)-N—((S)-5-methyl-5,6-dihydrobenzo[f]tetrazolo[1,5-d][1,4]oxazepin-8-yl)picolinamide] | 4.7 nM |
| Cc1cc(F)c(C(=O)Nc2cccc3c2OCC(CO)n2cnnc2-3)cc1-n1cnc(C2CC2)c1 (stereo not drawn) [Example 81, 5-(4-cyclopropyl-1H-imidazol-1-yl)-2-fluoro-N-(5-(hydroxymethyl)-5,6-dihydrobenzo[f][1,2,4]triazolo[4,3-d][1,4]oxazepin-8-yl)-4-methylbenzamide] | 5.7 nM |

Further compounds by falling IC50, results first:

| IC50 | Structure (SMILES) |
| --- | --- |
| 6.6 nM | Cc1cc(F)c(C(=O)Nc2cccc3c2OCCn2nnnc2-3)cc1-n1cnc(C2CC2)c1 [Example 79, 5-(4-cyclopropyl-1H-imidazol-1-yl)-N-(5,6-dihydrobenzo[f]tetrazolo[1,5-d][1,4]oxazepin-8-yl)-2-fluoro-4-methylbenzamide] |
| 6 nM | C[C@H]1CN(c2cnc(C(=O)Nc3cccc4c3OCCn3nnnc3-4)cc2-n2cnc(C3CC3)c2)CCO1 [Example 66, (S)-4-(4-cyclopropyl-1H-imidazol-1-yl)-N-(5,6-dihydrobenzo[f]tetrazolo[1,5-d][1,4]oxazepin-8-yl)-5-(2-methylmorpholino)picolinamide] |
| 5.7 nM | C[C@H]1COc2c(NC(=O)c3cc(-n4cnc(C5CC5)c4)ccn3)cccc2-c2nncn21 [Example 80, (S)-4-(4-cyclopropyl-1H-imidazol-1-yl)-N-(5-methyl-5,6-dihydrobenzo[f][1,2,4]triazolo[4,3-d][1,4]oxazepin-8-yl)picolinamide] |
| 4.1 nM | CC(C)Oc1cnc(C(=O)Nc2cccc3c2OC[C@@H](C)n2nnnc2-3)cc1-n1cnc(C2CC2)c1 [Example 69, (R)-4-(4-cyclopropyl-1H-imidazol-1-yl)-5-isopropoxy-N-(5-methyl-5,6-dihydrobenzo[f]tetrazolo[1,5-d][1,4]oxazepin-8-yl)picolinamide] |
| 4 nM | C[C@@H]1CN(c2cnc(C(=O)Nc3cccc4c3OC[C@@H](C)n3nnnc3-4)cc2-n2cnc(C3CC3)c2)CCO1 [Example 75, 4-(4-cyclopropyl-1H-imidazol-1-yl)-N—((R)-5-methyl-5,6-dihydrobenzo[f]tetrazolo[1,5-d][1,4]oxazepin-8-yl)-5-((R)-2-methylmorpholino)picolinamide] |
| 3.5 nM | O=C(Nc1cccc2c1OCCn1nnnc1-2)c1cc(-n2cnc(C3CC3)c2)c(N2CC[C@H](O)C2)cn1 [Example 61, (S)-4-(4-cyclopropyl-1H-imidazol-1-yl)-N-(5,6-dihydrobenzo[f]tetrazolo[1,5-d][1,4]oxazepin-8-yl)-5-(3-hydroxypyrrolidin-1-yl)picolinamide] |
| 3.2 nM | O=C(Nc1cccc2c1OCCn1nnnc1-2)c1cc(-n2cnc(C3CC3)c2)c(N2CCC2)cn1 [Example 58, 5-(azetidin-1-yl)-4-(4-cyclopropyl-1H-imidazol-1-yl)-N-(5,6-dihydrobenzo[f]tetrazolo[1,5-d][1,4]oxazepin-8-yl)picolinamide] |
| 3.2 nM | C[C@@H]1CN(c2cnc(C(=O)Nc3cccc4c3OC[C@H](C)n3nnnc3-4)cc2-n2cnc(C3CC3)c2)CCO1 [Example 76, 4-(4-cyclopropyl-1H-imidazol-1-yl)-N—((S)-5-methyl-5,6-dihydrobenzo[f]tetrazolo[1,5-d][1,4]oxazepin-8-yl)-5-((R)-2-methylmorpholino)picolinamide] |
